Test results as given in patent US9238022B2, “Xanthanodien for the treatment of cancer” (priority 2010, dated 2016).
Entries after “also recorded” stand apart in the source; their conditions may differ.

What was measured:
[1] = test system: ovarian cancer cells JC, NIH:OVCAR-3, SKOV-3; assay: In vitro cytotoxicity test (Alamar blue, microscopy) on ovarian cancer cells; format: cell-based; settings: for cytotoxicity towards ovarian cancer cells (in words): 1, 5 and 10 μg/mL
Protocol: (§1) Cells used in the assays were an ovarian cell line, JC (van Haaften-Day et al. 1983. Cancer Research 43: 3725-3731), OVCAR-3 and SKOV-3, The American Type Culture Collection (ATCC), a melanoma line (MM-An, Byers et al. 1991. Am J Path 139, No 2: 423-435) and normal human diploid fibroblasts primary cultures (Brookes et al. 2002 The EMBO Journal Vol. 21, No. 12: 2936-2945).
(§2) In vitro cytotoxicity tests were performed using a non-fluorescent substrate, Alamar blue (BioSource, Invitrogen, UK) as described by Page et al. (Page B, Page M and Noel C. 1993. International Journal of Oncology 3: 473-476).
(§3) Ovarian cancer cells (1×10^4 or 5×10^4) were seeded in 24-well plates (Costar, USA) and grown in RPMI-1640, supplemented with 6 mM L-glutamine, 10% fetal calf serum (FCS) (Gibco, Invitrogen, UK) and penicillin (100 units/mL) and streptomycin (100 μg/mL), while melanoma cells and normal fibroblasts were grown in Dulbecco's modified Eagle medium (DMEM), also supplemented with L-glutamine and FCS. The cultures were maintained in a humidified atmosphere of 5% CO2 at 37° C.
(§4) The in exponential growth cultures (in triplicates) were treated with the compound, dissolved in dimethyl sulfoxide (DMSO) and added at final concentrations of 1, 5, and 10 μg/mL. In 2 mL medium/well 10% Alamar blue was added and 100 μl of the supernatant of the 24-well plates after 24, 48 and 72 hrs were pipetted into 96-well plates (Costar, USA). Cell viability was measured with a 96-well plate reader (Molecular Devices Ltd, UK).
(§5) Ovarian cancer cells JC, NIH:OVCAR-3, Skov-3, fibroblasts as well as melanoma cancer cells MM-AN were used for cytotoxicity tests with EPD and EPA. The final concentrations of EPD and EPA added to the growth medium were 1, 5 and 10 μg/ml per well.
(§6) Photographs were taken from the ovarian cancer cell line JC, the melanoma cell line MM-An and normal fibroblasts in 24-well plates using a Leica inverted microscope at a magnification of 100 times. Concentrations of EPD ranged 1-10 μg/mL and the experiments were terminated at 48 and 72 hrs (FIGS. 6-8).
Cell viability was measured by adding 10% Alamar Blue (BioSource, Invitrogen, UK) to ovarian cancer cell cultures (OVCAR-3, SKOV-3) to 1, 5 and 10 μg/ml of EPD and to the control cultures (as described above). After 24, 48 and 72 hours incubation, 100 μl of culture supernatant was taken and cell viability measured with a plate reader (Molecular Devices, Ltd, UK) according to the manufacturer's instructions. The results are depicted in FIGS. 3-5 and confirm that the phenomenon observed in the photographs of FIGS. 6-8 is cell death.

[2] = test system: normal human diploid fibroblasts; assay: In vitro cytotoxicity test on normal cells; format: cell-based
Protocol: The cultures were maintained in a humidified atmosphere of 5% CO2 at 37° C.
as §4, §5, §6

melanoma cells MM-AN = assay: In vitro cytotoxicity test on melanoma cells; format: cell-based
Protocol: as §1, §2, §3, §4, §5, §6

NIH:OVCAR-3 cells = assay: Ovarian cancer animal model (i.p. OVCAR-3 ascites); format: in vivo, Balb/c nu/nu mice
Protocol: In order to assess the efficacy of EPD in the treatment of ovarian cancer, in vivo experiments were performed with Balb/c nu/nu mice (Charles River Laboratories, France). As a model system of advanced ovarian cancer, a total of 20 Balb/c nu/nu mice were inoculated intra-peritoneally (i.p.) with 1.0×10^7 cells NIH:OVCAR-3 cells (American Type Culture Collection (ATCC number: HTB-161™)/200 μl PBS. NIH:OVCAR-3 is an appropriate model system in which to study drug resistance in ovarian cancer. Upon inoculation into the abdominal cavity ascites were formed at first in only 5 mice. One mouse after having developed a large abdomen was sacrificed and the ascites cells were inoculated into the 15 mice which had not developed ascites. Another mouse was sacrificed to freeze down the cells. […] The 15 mice without ascites were devided into 3 groups of 5 mice. One group served as control, one group received the standard chemotherapy cisplatin and one group received the test drug EPD.
Drugs were given 200 μl/mouse i.p. in order to assess their efficacy as anti-tumor drug. The weight of mice when drug-treated varied between 22 and 26 gram, all with a swollen abdomen. Reduction of the swollen abdomen of the mice (resulting from the killing of the OVCAR-3 cells) was then studied.
Eremophila-1(10)-11(13)-dien-12,8β-olide (EPD) was administered at 20 mg/kg body weight. EPD was isolated from Calomeria amaranthoides as described in Example 1 above. The drug was inoculated twice a week into the abdominal cavity of the mice.

leukocytes = settings: Dupuis & Brisson 1976; cited from earlier work
P388 Leukemia = settings: NCI screening data 1972; cited from earlier work
[3] = 20 mg/kg i.p. twice a week for 6 weeks

Structure (SMILES): C=C(C(=O)O)[C@@H]1CCC2=CCC[C@H](C)[C@@]2(C)C1 [EPA, eremophila-1(10),11(13)-dien-12-oic acid]
- cytotoxicity towards ovarian cancer cells (in words) [1]: non-cytotoxic; also recorded: no cytotoxicity; also recorded: did not show cytotoxic effects
- cytotoxicity towards normal fibroblasts (in words) ([2]; 1, 5 and 10 μg/mL): no cytotoxicity
- cytotoxicity towards melanoma cells (in words) (melanoma cells MM-AN; 1, 5 and 10 μg/mL): no cytotoxicity

Structure (SMILES): C=C1C(=O)O[C@@H]2CC3=CCC[C@H](C)[C@@]3(C)C[C@H]12 [EPD, eremophila-1(10)-11(13)-dien-12,8β-olide]
- effect on cancer cells at 1 μg/mL ([1]; 1 μg/mL, in vitro): many cancer cells were floating in the wells; also recorded: great cell loss was already seen; also recorded: substantial killing of cancer cells
- cell death of cancer cells at 5 μg/mL ([1]; 5 μg/mL, 48 hours): Cell death was observed in the majority of cancer cells; also recorded: killed
- cell death of cancer cells at 10 μg/mL ([1]; 10 μg/mL, 48 hours): All cells were dead
- cytotoxicity towards ovarian cancer cells (in words) [1]: significant activity; also recorded: very clear cytotoxic effects
- selectivity, cancer cells over normal cells ([1]; in vitro, compared with normal cells): selectively kills cancer cells over normal cells
- general health, side effects (NIH:OVCAR-3 cells; [3]): looked very healthy; also recorded: did not show any signs of side effects
- swelling of the abdomen (ascites) (NIH:OVCAR-3 cells; [3]): reduced during treatment; also recorded: remission of cancer; also recorded: the ascites disappeared
- survival (NIH:OVCAR-3 cells; i.p. twice a week for 6 weeks): all the animals survived the study
- return of ascites after end of treatment (NIH:OVCAR-3 cells; three mice kept one month without further treatment after 6 weeks of treatment): In one mouse the ascites returned, two mice did not develop ascites again
- effect on normal cells at 5 μg/mL ([2]; 5 μg/mL, 48 hours): not or little affected; also recorded: largely unaffected; also recorded: little affected
- effect on normal fibroblasts at 10 μg/mL ([2]; 10 μg/mL, 48 hours): more evidence of cell death
- cell death of cancer cells at 5 μg/mL (melanoma cells MM-AN; 5 μg/mL, 48 hours, MM-An): Cell death was observed in the majority of cancer cells
- cell death of cancer cells at 10 μg/mL (melanoma cells MM-AN; 10 μg/mL, 48 hours, MM-An): All cells were dead

Structure (SMILES): C=C1C(=O)O[C@@H]2C[C@@]3(C)CCC[C@H](C)C3=C[C@H]12 [alantolactone]
- toxicity to leukocytes (leukocytes): toxic

Structure (SMILES): N.N.[Cl][Pt][Cl] [cisplatin, reference compound]
- killing of cancer cells, parallel comparison ([1]; comparison of crude extract, cisplatin and docetaxol, concentration of the drugs not given): all killed; also recorded: completely kill
- swelling of the abdomen (ascites) (NIH:OVCAR-3 cells; 5 mg/kg i.p. once a week for 4 weeks): reduced during treatment
- general health, side effects (NIH:OVCAR-3 cells; 5 mg/kg i.p. once a week, 4 weeks): got very sick; also recorded: had to be euthanized

Structure (SMILES): CC(=O)O[C@@]12CO[C@@H]1C[C@H](O)[C@@]1(C)C(=O)[C@H](O)C3=C(C)[C@@H](OC(=O)[C@H](O)[C@@H](NC(=O)OC(C)(C)C)c4ccccc4)C[C@@](O)([C@@H](OC(=O)c4ccccc4)[C@H]21)C3(C)C [docetaxol, reference compound]
- killing of normal cells, parallel comparison ([2]; concentration of the drugs not given): completely kill

Structure (SMILES): C=C1C(=O)O[C@H]2CC3=CCC[C@H](C)[C@@]3(C)C[C@@H]12 [napthofuranone, (3aβ,4aα,5α,9aβ)-3a,4,4a,5,6,7,9,9a-octahydro 4a,5-dimethyl-3-methylene naphtho[2,3-b]furan-2(3H)-2-one]
- in vivo anti-tumor activity (P388 Leukemia): no clear results
